Test results reported in paper PMC10816625, “Targeting Alzheimer’s Disease: Evaluating the Efficacy of C-1 Functionalized N-Aryl-Tetrahydroisoquinolines as Cholinergic Enzyme Inhibitors and Promising Therapeutic Candidates” (International Journal of Molecular Sciences, 2024).
Entries after “also recorded” stand apart in the source; their conditions may differ.

Key:
eeAChE = target: T1, eeAChE (Electrophorus electricus, UniProt O42275); test: biochemical; type: biochemical; settings: for IC50: Table 1, mean ± SD; for Selectivity Index for AChE: IC50(BChE)/IC50(AChE)
T1 construct: purchased Sigma-Aldrich C3389
Procedure: (§1) The abilities of synthesized 22 compounds to inhibit AChE and BuChE activity were determined following Ellman’s procedure using a Perkin Elmer Lambda 35 spectrophotometer with thermostated 1.00 cm quartz cells. AChE’s and BuChE’s stock solutions were diluted with 20 mM TRIS to give 1 unit per mL of enzymes’ activity. […] A 0.01 M DTNB solution was prepared with 0.1 M phosphate buffer (pH 7) containing 0.15% (w/v) sodium bicarbonate. A 0.1 M phosphate buffer (pH 8) was used for assay. pH was adjusted to 8.0 ± 0.1 by adding aliquots of concentrated HCl. Stock solutions (10 mM) of investigated compounds were prepared daily by dissolving solid compounds in DMSO. Diluted solutions were also prepared in DMSO.
(§2) Briefly, enzymes’ assays were prepared as follows. […] Thereafter, 20 μL of ASChI or BSChCI was added, after which the reaction was initiated. […] For the blank value, the addition of 20 μL of buffer replaced the enzyme solution while an addition of 7 μL of DMSO replaced the inhibitor solution. The control solution contained 7 μL of DMSO instead of the inhibitor. The screening test was performed at a 1 × 10^−5 M concentration, and the compounds with more than 50% of inhibition were further assayed using dilution series of up to eight increasing concentrations (10^−5 M to 10^−9 M). The inhibition potency was presented as the dependence on the relative enzyme activity (REA) as the function of the compound’s concentration. IC50 values were determined graphically from Hill curves using Origin 9 Microsoft Windows.

eqBuChE = target: T2, eqBuChE (Equus caballus, UniProt P81908); test: biochemical; settings: Table 1; preincubation 6 min, incubation 6 min, 37 °C; mean ± SD; read-out: IC50 BuChE
T2 construct: butyrylcholinesterase (BuChE) from horse serum (C1057); purchased Sigma-Aldrich C1057; host or cells: horse serum
Procedure: as §1, §2

AChE [1] = target: T3, AChE (Electrophorus electricus, UniProt O42275); test: Kinetic study of AChE inhibition (Lineweaver-Burk); type: biochemical; settings: for Type of Inhibition (AChE): Lineweaver-Burk plot; for Ki: preincubation 6 min, incubation 2 min
T3 construct: purchased Sigma-Aldrich C3389
Procedure: (§3) Kinetic studies of ChE enzymes were also performed using the above-mentioned modified Ellman’s method. The preincubation time was 6 min, while the incubation time was 2 min. The type of enzyme inhibition was justified by the Lineweaver–Burk plot (double reciprocal plot) for selected inhibitor concentrations, and substrate concentrations ranged from 0.01 to 1 mM. The kinetic parameters Km, Vmax, and Ki were determined. Graphs were plotted using Origin9 for Microsoft Windows.

BuChE [2] = target: T4, BuChE (Equus caballus, UniProt P81908); test: Kinetic study of BuChE inhibition (Lineweaver-Burk); type: biochemical
T4 construct: butyrylcholinesterase (BuChE) from horse serum (C1057); purchased Sigma-Aldrich C1057; host or cells: horse serum
Procedure: as §3

in vitro = settings: for PAMPA-BBB Permeability Pe: porcine polar brain lipids, UPLC quantification; for Papp: pig, PAMPA
Procedure: The assay was performed according to the method reported by Di et al. with slight modification. Commercial drugs, verapamil, and caffeine were used to validate the protocol. […] Each sample was analyzed with at least three independent experiments in three wells.

AChE [3] = target: T3, AChE; test: Trp fluorescence-quenching titration of AChE; type: binding; settings: 5 IU/mL AChE
Procedure: (§4) Fluorescence titration studies were conducted using the Agilent Cary Eclipse fluorescence spectrophotometer. Fluorescence-quenching spectra were recorded within the wavelength range of 320–450 nm, with an excitation at 295 nm at room temperature. Excitation and emission slit widths were both set at 5 nm, and the scanning rate was fixed at 9600 nm/min. The concentration of enzymes was 5 IU/mL. The incubation time between each addition of THIQ aliquots was 6 min.

BuChE [4] = target: T4, BuChE; test: Trp fluorescence titration of BuChE; type: binding; settings: 5 IU/mL BuChE
Procedure: as §4

[5] = logP determination by UPLC; type: physicochemical; settings: reversed-phase ACQUITY UPLC BEH C18 column; UPLC method
Procedure: . The column used for logP determinations was ACQUITY UPLC BEH C18 column with the dimensions 1.7 μm × 100 mm × 2.1 mm (Waters). The measurements were performed in the isocratic mode. The eluent flow rate was 0.25 mL min^−1, and the injection volume was 5 μL. The mobile phase composition was a different percentage of acetonitrile and H2O (we ran a chromatogram for each compound with different eluent compositions and the acetonitrile fraction ranging from 64% to 91%). The wavelength of the optical detection was 256 nm, the retention times for every examined compound under certain experimental conditions were determined. At the beginning, the compound’s retention factor, k’, was determined for different percentages of acetonitrile in the mobile phases. The column’s dead time was determined by the injection of sodium bromide. After that, the retention factors for a pure aqueous eluent (log kw) were determined for the compounds with previously known logPo/w values as well as for the investigated compounds. […]

[6] = preincubation 6 min, incubation 6 min, 37 °C
[7] = excitation 295 nm, room temperature

T3 sequence (O42275 24-633): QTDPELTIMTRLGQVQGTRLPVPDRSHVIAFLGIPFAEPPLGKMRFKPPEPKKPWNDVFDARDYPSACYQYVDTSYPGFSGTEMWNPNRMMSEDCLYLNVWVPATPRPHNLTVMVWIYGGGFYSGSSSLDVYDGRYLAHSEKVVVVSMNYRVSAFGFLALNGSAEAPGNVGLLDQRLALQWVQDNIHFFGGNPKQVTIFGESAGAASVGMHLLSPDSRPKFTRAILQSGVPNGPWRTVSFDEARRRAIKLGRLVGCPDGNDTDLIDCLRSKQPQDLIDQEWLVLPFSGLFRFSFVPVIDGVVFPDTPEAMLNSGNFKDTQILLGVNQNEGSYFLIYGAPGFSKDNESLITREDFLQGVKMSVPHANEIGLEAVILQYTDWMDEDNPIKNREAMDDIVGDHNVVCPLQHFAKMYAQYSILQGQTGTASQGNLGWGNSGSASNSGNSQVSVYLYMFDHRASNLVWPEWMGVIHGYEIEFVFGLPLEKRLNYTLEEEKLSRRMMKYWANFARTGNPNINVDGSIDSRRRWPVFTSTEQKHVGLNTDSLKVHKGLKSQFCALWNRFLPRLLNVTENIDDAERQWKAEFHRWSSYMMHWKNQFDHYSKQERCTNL
T1 sequence (O42275 24-633): as above
T4 sequence (P81908 whole entry): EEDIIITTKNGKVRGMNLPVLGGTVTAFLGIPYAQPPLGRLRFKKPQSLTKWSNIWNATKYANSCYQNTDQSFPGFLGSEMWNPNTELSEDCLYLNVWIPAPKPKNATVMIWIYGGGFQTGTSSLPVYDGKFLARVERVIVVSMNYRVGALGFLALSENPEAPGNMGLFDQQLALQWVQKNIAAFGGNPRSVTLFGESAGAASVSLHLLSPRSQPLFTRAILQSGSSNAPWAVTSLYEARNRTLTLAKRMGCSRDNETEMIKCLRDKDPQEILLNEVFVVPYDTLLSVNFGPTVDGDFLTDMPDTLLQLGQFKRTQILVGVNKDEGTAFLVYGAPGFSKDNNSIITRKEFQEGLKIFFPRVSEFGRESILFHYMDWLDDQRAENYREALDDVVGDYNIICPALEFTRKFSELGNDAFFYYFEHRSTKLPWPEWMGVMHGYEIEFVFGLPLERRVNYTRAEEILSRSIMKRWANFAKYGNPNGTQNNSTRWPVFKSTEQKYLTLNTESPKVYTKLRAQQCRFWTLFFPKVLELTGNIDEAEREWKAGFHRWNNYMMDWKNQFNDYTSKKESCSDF
T2 sequence (P81908 whole entry): as above

Row | Compound | IC50 (eeAChE; [6]) | IC50 (eqBuChE) | Selectivity Index for AChE (eeAChE) | also measured
1 | COc1cc2c(cc1OC)C(CC(C)=O)N(c1ccc(F)cc1)CC2 (stereo not shown) [Compound 2d] | > 10 µM | > 10 µM |  | 
2 | COc1cc2c(cc1OC)C(CC(=O)c1ccccc1)N(c1ccc(C)cc1)CC2 (stereo not shown) [Compound 3e] | > 10 µM |  |  | 
3 | O=C(CCc1ccccc1)CCC1c2ccccc2CCN1c1ccccc1 (stereo not shown) [Compound 3i] | 1.11 ± 0.04 µM | 2.72 ± 0.2 µM | 2.45 | Type of Inhibition (AChE) (AChE [1]): Non-competitive; Ki (AChE [1]): 1.06 ± 0.01 µM; Type of Inhibition (BuChE) (BuChE [2]; Lineweaver-Burk plot): mixed type of inhibition (non-competitive/uncompetitive); also recorded: Mix non-competitive/uncompetitive; Ki (BuChE [2]; preincubation 6 min, incubation 2 min): 1.04 ± 0.1 µM; PAMPA-BBB Permeability Pe (in vitro): impossible to be detected; also recorded: High hydrophobicity; it retained in the membrane; Quenching of Trp fluorescence of AChE (AChE [3]): quenching of Trp fluorescence was observed; n (number of binding sites) (AChE [3]): 0.94 ± 0.04; Ksv (AChE [3]; [7]): (6.96 ± 0.05) × 10^4 M^−1; kq (bimolecular quenching constant) (AChE [3]; [7]): (6.96 ± 0.05) × 10^14 M^−1s^−1; Effect on Trp fluorescence of BuChE (BuChE [4]): fluorescence intensity of BuChE was increased; chromatographic logP [5]: 3.78
4 | CCC(=O)CC1c2cc(OC)c(OC)cc2CCN1c1ccccc1 (stereo not shown) [Compound 2e] | > 10 µM |  |  | 
5 | COc1cc2c(cc1OC)C(C#N)N(c1ccc(F)cc1)CC2 (stereo not shown) [Compound 4b] | > 10 µM | > 10 µM |  | 
6 | COc1cc2c(cc1OC)C(CCC(=O)c1ccccc1)N(c1ccc(F)cc1)CC2 (stereo not shown) [Compound 3h] | > 10 µM | > 10 µM |  | 
7 | Cn1c(=O)c2c(ncn2C)n(C)c1=O [Caffeine, reference compound] |  |  |  | Papp (in vitro): 1.47 ×10⁻⁶ cm/s
8 | O=C(CC1c2ccccc2CCN1c1ccccc1)c1ccccc1 (stereo not shown) [Compound 3a] | 4.29 ± 0.09 µM | 8.26 ± 1.05 µM | 1.93 | 
9 | c1ccc(N2CCc3ccccc3C2)cc1 [Compound 1a, N-phenyl-1,2,3,4-tetrahydroisoquinoline] | > 10 µM | > 10 µM |  | Residual Activity at 1 × 10^−5 M AChE (eeAChE; 1 × 10^−5 M, preincubation 6 min, incubation 6 min, 37 °C): did not show inhibition potential
10 | COc1cc2c(cc1OC)C(CCC(=O)CCc1ccccc1)N(c1ccc(F)cc1)CC2 (stereo not shown) [Compound 3l] | > 10 µM | > 10 µM |  | 
11 | CC(=O)CC1c2ccccc2CCN1c1ccc(F)cc1 (stereo not shown) [Compound 2b] | 5.46 ± 0.58 µM | 8.9 ± 2.03 µM | 1.63 | 
12 | COc1cc2c(cc1OC)C(CCC(=O)c1ccccc1)N(c1ccccc1)CC2 (stereo not shown) [Compound 3g] | 6.78 ± 0.22 µM | 8.01 ± 0.55 µM | 1.18 | 
13 | O=C(CCc1ccccc1)CCC1c2ccccc2CCN1c1ccc(F)cc1 (stereo not shown) [Compound 3j] | 2.91 ± 0.09 µM | 4.52 ± 0.15 µM | 1.55 | 
14 | O=C(CCC1c2ccccc2CCN1c1ccccc1)c1ccccc1 (stereo not shown) [Compound 3f] | 2.42 ± 0.09 µM | 6.28 ± 0.36 µM | 2.59 | PAMPA-BBB Permeability Pe (in vitro): impossible to be detected; also recorded: High hydrophobicity; it retained in the membrane; chromatographic logP [5]: 3.66
15 | CC(=O)CC1c2ccccc2CCN1c1ccccc1 (stereo not shown) [Compound 2a] | > 10 µM | > 10 µM |  | 
16 | COc1cc2c(cc1OC)C(CC(C)=O)N(c1ccccc1)CC2 (stereo not shown) [Compound 2c] | 5.04 ± 0.28 µM | > 10 µM |  | 
17 | COc1ccc(N2CCc3ccccc3C2CC(=O)c2ccccc2)cc1 (stereo not shown) [Compound 3b] | 9.05 ± 0.81 µM | > 10 µM |  | 
18 | COc1cc2c(cc1OC)C(CC(=O)c1ccccc1)N(c1ccc(F)cc1)CC2 (stereo not shown) [Compound 3d] | 4.89 ± 0.15 µM | > 10 µM |  | fold lower inhibitory activity towards AChE (eeAChE; compared to unsubstituted 3c): 2.5 fold
19 | COc1cc2c(cc1OC)C(C#N)N(c1ccc(C)cc1)CC2 (stereo not shown) [Compound 4c] | > 10 µM | > 10 µM |  | 
20 | COc1cc2c(cc1OC)C(CC(=O)c1ccccc1)N(c1ccccc1)CC2 (stereo not shown) [Compound 3c] | 1.95 ± 0.23 µM | > 10 µM | >5 | Type of Inhibition (AChE) (AChE [1]): Non-competitive; Ki (AChE [1]): 1.78 ± 0.1 µM; fold increase in inhibitory activity towards AChE (eeAChE; compared to compound 2c): 2.5 fold; Papp (in vitro): 47.5 ×10⁻⁶ cm/s; PAMPA-BBB Permeability Pe (in vitro): successfully crossed the artificial blood−brain barrier; also recorded: able to cross the BBB; Quenching of Trp fluorescence of AChE (AChE [3]): no quenching of Trp fluorescence; chromatographic logP [5]: 3.39
21 | COc1cc2c(cc1OC)C(CCC(=O)CCc1ccccc1)N(c1ccccc1)CC2 (stereo not shown) [Compound 3k] | 4.02 ± 0.19 µM | > 10 µM |  | 
22 | N#CC1c2ccccc2CCN1c1ccccc1 (stereo not shown) [Compound 4a] | > 10 µM | > 10 µM |  | 
